According to patent EP0620225B1, “Cephalosporin derivatives” (Basilea Pharmaceutica AG, priority 1993, dated 1994):
In brackets after ≈: the same amount, converted by molar mass. Like-named read-outs stand apart in the source and are kept apart here.

What was measured:
S.pneumoniae PEN-R = experiment: In vitro activity against selected species (MIC50, MIC90, range); format: cell-based; settings: Streptococcus pneumoniae; for MIC: MIC range
S.aureus MSSA = experiment: as above; format: cell-based; settings: Staphylococcus aureus, medium MHB (Mueller Hinton Broth)
S.aureus Smith = experiment: Efficacy against systemic infections (septicemia) in mice; format: in vivo; settings: Staphylococcus aureus, 96 h, sc 1 and 3 h after challenge, survival day 4
Method in brief: (§1)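 Swiss albino mice (16–20 g) infected i.p. with 4–10× the 48-h LD50 of each strain; compound given p.o. or s.c. at 1 and 3 h post-challenge, plus 5 h for P. aeruginosa BA. Five mice per group; ED50 (mg/kg) by probit analysis of day-4 survival.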

Escherichia coli 25922 = experiment: as above; format: in vivo; settings: 96 h, survival day 4
Method in brief: as §1

P.mirabilis 2117 = experiment: Antibacterial spectrum (MIC), agar dilution; format: cell-based
Experimental: (§2) In vitro activity was determined by minimum inhibitory concentration in a microorganism spectum by the agar dilution method in Mueller Hinton agar.

C.freundii 43 = experiment: Antibacterial spectrum (MIC), agar dilution; format: cell-based
Experimental: as §2

H.influenzae 1 = experiment: Antibacterial spectrum (MIC), agar dilution; format: cell-based
Experimental: as §2

S.agalactiae QK44 = experiment: Antibacterial spectrum (MIC), agar dilution; format: cell-based
Experimental: as §2

S.pyogenes B15 = experiment: Antibacterial spectrum (MIC), agar dilution; format: cell-based
Experimental: as §2

E.cloacae 908SSi = experiment: Antibacterial spectrum (MIC), agar dilution; format: cell-based
Experimental: as §2

P.asaccharolyticus 29743 = experiment: Antibacterial spectrum (MIC), agar dilution; format: cell-based
Experimental: as §2

L.monocytogenes BK23 = experiment: Antibacterial spectrum (MIC), agar dilution; format: cell-based
Experimental: as §2

E.faecalis 6 = experiment: Antibacterial spectrum (MIC), agar dilution; format: cell-based
Experimental: as §2

S.marcescens 69438 = experiment: Antibacterial spectrum (MIC), agar dilution; format: cell-based
Experimental: as §2

M.morganii 6H-137 = experiment: Antibacterial spectrum (MIC), agar dilution; format: cell-based
Experimental: as §2

P.aeruginosa 27853 = experiment: Antibacterial spectrum (MIC), agar dilution; format: cell-based
Experimental: as §2

S.aureus 734 MRSA = experiment: Antibacterial spectrum (MIC), agar dilution; format: cell-based
Experimental: as §2

X.maltophilia 1AC739 = experiment: Antibacterial spectrum (MIC), agar dilution; format: cell-based
Experimental: as §2

N.meningitidis 69480 = experiment: Antibacterial spectrum (MIC), agar dilution; format: cell-based
Experimental: as §2

C.freundii 902 = experiment: Antibacterial spectrum (MIC), agar dilution; format: cell-based
Experimental: as §2

S.viridans group 016 = experiment: Antibacterial spectrum (MIC), agar dilution; format: cell-based
Experimental: as §2

B.fragilis ATCC25285 = experiment: Antibacterial spectrum (MIC), agar dilution; format: cell-based
Experimental: as §2

K.pneumoniae 418 = experiment: Antibacterial spectrum (MIC), agar dilution; format: cell-based
Experimental: as §2

S.aureus 6538 = experiment: Antibacterial spectrum (MIC), agar dilution; format: cell-based
Experimental: as §2

C.difficile ZH1 = experiment: Antibacterial spectrum (MIC), agar dilution; format: cell-based
Experimental: as §2

M.catarrhalis RA21 = experiment: Antibacterial spectrum (MIC), agar dilution; format: cell-based
Experimental: as §2

P.vulgaris 1028 = experiment: Antibacterial spectrum (MIC), agar dilution; format: cell-based
Experimental: as §2

E.cloacae 908R = experiment: Antibacterial spectrum (MIC), agar dilution; format: cell-based
Experimental: as §2

Acinetobacter sp.51-156 = experiment: Antibacterial spectrum (MIC), agar dilution; format: cell-based
Experimental: as §2

S.pneumoniae Q19 = experiment: Antibacterial spectrum (MIC), agar dilution; format: cell-based
Experimental: as §2

E.coli 25922 = experiment: Antibacterial spectrum (MIC), agar dilution; format: cell-based
Experimental: as §2

E.faecium = experiment: In vitro activity against selected species (MIC50, range); format: cell-based; settings: Enterococcus faecium, medium MHA
Experimental: as §2

S.aureus MRSA = experiment: In vitro activity against selected species (MIC50, MIC90, range); format: cell-based; settings: Staphylococcus aureus, medium MHA (Mueller Hinton Agar) +NaCl
Experimental: as §2

E.faecalis = experiment: as above; format: cell-based; settings: Enterococcus faecalis, medium MHA
Experimental: as §2

[1] = medium IsoB (Isosensitest Broth)
[2] = Citrobacter freundii, read-out: MIC
[3] = Enterobacter cloacae, read-out: MIC
[4] = Staphylococcus aureus, read-out: MIC

`CO/N=C(\C(=O)N[C@@H]1C(=O)N2C(C(=O)O)=C(CSc3nc(=O)c(=O)[nH]n3C)CS[C@H]12)c1csc(N)n1` [Ceftriaxone, [6R-[6 α,7 β(Z)]]-7-[[(2-Amino-4-thiazolyl)(methoxyimino)acetyl]amino]-8-oxo-3-[[(1,2,5,6-tetrahydro-2-methyl-5,6-dioxo-1,2,4-triazin-3-yl)thio]methyl]-5-thia-1-azabicyclo[4.2.0]oct-2-ene-2-carboxylic acid, reference compound] showed an MIC (S.pneumoniae PEN-R; [1]) of 0.1 to 2 µg/mL (≈ 0.18 to 3.61 µM), an MIC (S.pneumoniae PEN-R; medium IsoB + 20% serum) of 1 to 8 µg/mL and an MIC50 (S.pneumoniae PEN-R; [1]) of 0.5 µg/mL (≈ 0.902 µM). The MIC90 (S.pneumoniae PEN-R; [1]) was 1 µg/mL (≈ 1.8 µM), the MIC50 (S.pneumoniae PEN-R; medium IsoB + 20% serum) was 4 µg/mL and the MIC (S.aureus MSSA; MIC range) was 2 to 16 µg/mL (≈ 3.61 to 28.9 µM). The MIC50 (S.aureus MSSA) was 4 µg/mL (≈ 7.21 µM), the MIC90 (S.aureus MSSA) was 16 µg/mL (≈ 28.9 µM) and the ED50 (S.aureus Smith) was less than 2 mg/kg. The ED50 (Escherichia coli 25922; Escherichia coli 25922, po (orally) 1 and 3 h after challenge) was 0.9 mg/kg, the ED50 (Escherichia coli 25922; Escherichia coli, E.coli 25922, sc 1 and 3 h after challenge) was no more than 0.01 mg/kg and the MIC (P.mirabilis 2117; Proteus mirabilis, read-out: MIC) was no more than 0.06 µg/mL. The MIC (C.freundii 43; [2]) was 32 µg/mL (≈ 57.7 µM), the MIC (H.influenzae 1; Haemophilus influenzae, read-out: MIC) was less than 0.06 µg/mL and the MIC (S.agalactiae QK44; Streptococcus agalactiae, read-out: MIC) was no more than 0.06 µg/mL. For the same compound, the MIC (S.pyogenes B15; Streptococcus pyogenes, read-out: MIC) was no more than 0.06 µg/mL, the MIC (E.cloacae 908SSi; [3]) was 0.25 µg/mL (≈ 0.451 µM) and the MIC (P.asaccharolyticus 29743; Peptoniphilus asaccharolyticus, read-out: MIC) was 0.25 µg/mL (≈ 0.451 µM). It also gave an MIC (L.monocytogenes BK23; Listeria monocytogenes, read-out: MIC) greater than 16 µg/mL, an MIC (E.faecalis 6; Enterococcus faecalis, read-out: MIC) greater than 32 µg/mL and an MIC (S.marcescens 69438; Serratia marcescens, read-out: MIC) of 0.25 µg/mL (≈ 0.451 µM). It also gave an MIC (M.morganii 6H-137; Morganella morganii, 6H137, read-out: MIC) of no more than 0.06 µg/mL, an MIC (P.aeruginosa 27853; Pseudomonas aeruginosa, read-out: MIC) of 16 µg/mL (≈ 28.9 µM) and an MIC (S.aureus 734 MRSA; [4]) greater than 32 µg/mL. The MIC (X.maltophilia 1AC739; Stenotrophomonas maltophilia, read-out: MIC) was greater than 32 µg/mL, the MIC (N.meningitidis 69480; Neisseria meningitidis, read-out: MIC) was less than 0.01 µg/mL and the MIC (C.freundii 902; [2]) was 0.25 µg/mL (≈ 0.451 µM). The MIC (S.viridans group 016; Streptococcus viridans, read-out: MIC) was 0.25 µg/mL (≈ 0.451 µM), the MIC (B.fragilis ATCC25285; Bacteroides fragilis, read-out: MIC) was 16 µg/mL (≈ 28.9 µM) and the MIC (K.pneumoniae 418; Klebsiella pneumoniae, read-out: MIC) was no more than 0.06 µg/mL. The MIC (S.aureus 6538; [4]) was 4 µg/mL (≈ 7.21 µM), the MIC (C.difficile ZH1; Clostridioides difficile, read-out: MIC) was greater than 32 µg/mL and the MIC (M.catarrhalis RA21; Moraxella catarrhalis, read-out: MIC) was 1 µg/mL (≈ 1.8 µM). It also gave an MIC (P.vulgaris 1028; Proteus vulgaris, read-out: MIC) of 0.12 µg/mL (≈ 0.216 µM), an MIC (E.cloacae 908R; [3]) greater than 32 µg/mL and an MIC (Acinetobacter sp.51-156; SP.51156, read-out: MIC) of 32 µg/mL (≈ 57.7 µM). For the same compound, the MIC (S.pneumoniae Q19; Streptococcus pneumoniae, read-out: MIC) was no more than 0.06 µg/mL, the MIC (E.coli 25922; Escherichia coli, read-out: MIC) was no more than 0.06 µg/mL and the MIC (E.faecium; MIC range) was greater than 32 µg/mL. It also gave an MIC50 (E.faecium) greater than 32 µg/mL, an MIC (S.aureus MRSA; MIC range) greater than 32 µg/mL and an MIC50 (S.aureus MRSA) greater than 32 µg/mL. For the same compound, the MIC90 (S.aureus MRSA) was greater than 32 µg/mL, the MIC50 (E.faecalis) was greater than 32 µg/mL and the MIC90 (E.faecalis) was greater than 32 µg/mL.

Compound `Nc1nc(/C(=N/O)C(=O)N[C@@H]2C(=O)N3C(C(=O)O)=C(/C=C4\CCN(c5cccnc5)C4=O)CS[C@H]23)cs1` [K, [6R-[3(E),6α,7β(Z)]]-7-[[(2-Amino-4-thiazolyl)(hydroxyimino)acetyl]-amino]-8-oxo-3-[[2-oxo-1-(3-pyridinyl)-3-pyrrolidinylidene]methyl]-5-thia-1-azabicyclo[4.2.0]oct-2-ene-2-carboxylic acid] has an MIC (P.mirabilis 2117) of no more than 0.12 µg/mL, an MIC (C.freundii 43) of 2 µg/mL (≈ 3.69 µM) and an MIC (H.influenzae 1) of 0.25 µg/mL (≈ 0.462 µM). The MIC (S.agalactiae QK44) was 0.5 µg/mL (≈ 0.923 µM), the MIC (S.pyogenes B15) was no more than 0.06 µg/mL and the MIC (E.cloacae 908SSi) was no more than 0.12 µg/mL. The MIC (P.asaccharolyticus 29743) was no more than 0.25 µg/mL, the MIC (L.monocytogenes BK23) was 8 µg/mL (≈ 14.8 µM) and the MIC (E.faecalis 6) was 1 µg/mL (≈ 1.85 µM). For the same compound, the MIC (S.marcescens 69438) was 0.5 µg/mL (≈ 0.923 µM), the MIC (M.morganii 6H-137) was no more than 0.12 µg/mL and the MIC (P.aeruginosa 27853) was 16 µg/mL (≈ 29.5 µM). It also gave an MIC (S.aureus 734 MRSA) of 8 µg/mL (≈ 14.8 µM), an MIC (X.maltophilia 1AC739) greater than 32 µg/mL and an MIC (N.meningitidis 69480) of no more than 0.06 µg/mL. For the same compound, the MIC (C.freundii 902) was no more than 0.12 µg/mL, the MIC (S.viridans group 016) was 1 µg/mL (≈ 1.85 µM) and the MIC (B.fragilis ATCC25285) was 4 µg/mL (≈ 7.39 µM). It also gave an MIC (K.pneumoniae 418) of no more than 0.12 µg/mL, an MIC (S.aureus 6538) of 1 µg/mL (≈ 1.85 µM) and an MIC (C.difficile ZH1) of 16 µg/mL (≈ 29.5 µM). The MIC (M.catarrhalis RA21) was greater than 16 µg/mL, the MIC (P.vulgaris 1028) was 4 µg/mL (≈ 7.39 µM) and the MIC (E.cloacae 908R) was 4 µg/mL (≈ 7.39 µM). The MIC (Acinetobacter sp.51-156) was 32 µg/mL (≈ 59.1 µM), the MIC (S.pneumoniae Q19) was 0.12 µg/mL (≈ 0.222 µM) and the MIC (E.coli 25922) was no more than 0.12 µg/mL.
